Legend:
LNCaP-abl cells = assay: Cell proliferation assay, LNCaP-abl (CellTiter-Glo); assay type: cell-based; conditions: three days
Method: LNCaP-abl (3,000 cells/well, received from Dr. Myles Brown, Dana Farber Cancer Institute), 22RV 1 (1,000 cells/well), LNCaP (5,000 cells/well), or COS (3,000 cells/well) cells were plated in 96 well plates in 50 μl RPMI+10% FBS (Fisher Scientific, Waltham, Mass.). LNCaP, COS, and 22RV 1 cells were obtained from ATCC. Cells were treated in RPMI+10% FBS with test articles, ranging from 1 nM to 10 μM. Three days later, viable cells (LNCaP-abl, 22RV 1, and COS) were measured by CellTiter-Glo assay (Promega, Madison, Wis.). For LNCaP cells, medium containing test article was changed after 3 days of treatment, and after an additional 3 days of culture, viable cells were measured by CellTiter-Glo assay.

GR = molecular target: T1, GR (Homo sapiens, UniProt P04150); assay: GR antagonist assay (GRE-LUC luciferase reporter, with 0.1 nM dexamethasone)
T1 sequence (P04150 1-777): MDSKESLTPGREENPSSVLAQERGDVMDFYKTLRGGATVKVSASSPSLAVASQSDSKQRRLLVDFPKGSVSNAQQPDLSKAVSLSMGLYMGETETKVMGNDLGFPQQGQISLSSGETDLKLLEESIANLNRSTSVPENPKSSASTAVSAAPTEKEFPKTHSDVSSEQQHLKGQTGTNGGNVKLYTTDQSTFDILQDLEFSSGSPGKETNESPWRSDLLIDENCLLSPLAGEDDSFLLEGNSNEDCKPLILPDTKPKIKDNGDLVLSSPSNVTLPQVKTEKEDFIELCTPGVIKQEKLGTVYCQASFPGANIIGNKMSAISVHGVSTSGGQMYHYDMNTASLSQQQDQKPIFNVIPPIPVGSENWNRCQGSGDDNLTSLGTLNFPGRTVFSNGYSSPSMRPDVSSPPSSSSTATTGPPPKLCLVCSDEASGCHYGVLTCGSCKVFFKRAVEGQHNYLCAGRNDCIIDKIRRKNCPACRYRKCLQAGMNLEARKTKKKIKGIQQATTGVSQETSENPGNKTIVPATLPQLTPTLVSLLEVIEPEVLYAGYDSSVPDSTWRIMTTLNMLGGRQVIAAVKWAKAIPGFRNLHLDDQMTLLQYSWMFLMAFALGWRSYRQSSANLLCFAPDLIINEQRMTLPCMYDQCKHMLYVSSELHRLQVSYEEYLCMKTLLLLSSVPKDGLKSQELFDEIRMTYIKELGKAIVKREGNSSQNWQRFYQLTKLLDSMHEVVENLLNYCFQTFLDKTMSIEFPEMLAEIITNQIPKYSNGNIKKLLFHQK
Method: COS-7 cells (ATCC, Manassas, Va.) were plated in 24 well plates in DME+5% csFBS without phenol red at 70,000 cells/well. Once the cells attached to the plates (typically after overnight incubation after plating), they were transfected in OPTIMEM medium (Life Technologies) using lipofectamine reagent (Life Technologies) with 0.25 μg GRE-LUC, 25 ng pCR3.1 GR, and 10 ng CMV-renilla LUC per well. Twenty-four hours after transfection, the cells were fed with DME+5% csFBS without phenol red (Fisher Scientific, Waltham, Mass.) and treated with the test compounds (1 μM to 10 μM dose range) in the presence of 0.1 nM dexamethasone (Sigma, St. Louis, Mo.). Sixteen to twenty-four hours after treatment, a luciferase assay was performed using the Dual Luciferase assay kit (Promega, Madison, Wis.). Firefly luciferase values were normalized to Renilla luciferase numbers.

Human AR = molecular target: T2, Human AR (Homo sapiens, UniProt P10275); assay: AR antagonist assay (GRE-LUC luciferase reporter, with 0.1 nM R1881); assay type: cell-based; conditions: read-out: AR Antagonism IC50
T2 construct: expressed in transfected cells; host or cells: HEK-293 cells
T2 sequence (P10275 1-920): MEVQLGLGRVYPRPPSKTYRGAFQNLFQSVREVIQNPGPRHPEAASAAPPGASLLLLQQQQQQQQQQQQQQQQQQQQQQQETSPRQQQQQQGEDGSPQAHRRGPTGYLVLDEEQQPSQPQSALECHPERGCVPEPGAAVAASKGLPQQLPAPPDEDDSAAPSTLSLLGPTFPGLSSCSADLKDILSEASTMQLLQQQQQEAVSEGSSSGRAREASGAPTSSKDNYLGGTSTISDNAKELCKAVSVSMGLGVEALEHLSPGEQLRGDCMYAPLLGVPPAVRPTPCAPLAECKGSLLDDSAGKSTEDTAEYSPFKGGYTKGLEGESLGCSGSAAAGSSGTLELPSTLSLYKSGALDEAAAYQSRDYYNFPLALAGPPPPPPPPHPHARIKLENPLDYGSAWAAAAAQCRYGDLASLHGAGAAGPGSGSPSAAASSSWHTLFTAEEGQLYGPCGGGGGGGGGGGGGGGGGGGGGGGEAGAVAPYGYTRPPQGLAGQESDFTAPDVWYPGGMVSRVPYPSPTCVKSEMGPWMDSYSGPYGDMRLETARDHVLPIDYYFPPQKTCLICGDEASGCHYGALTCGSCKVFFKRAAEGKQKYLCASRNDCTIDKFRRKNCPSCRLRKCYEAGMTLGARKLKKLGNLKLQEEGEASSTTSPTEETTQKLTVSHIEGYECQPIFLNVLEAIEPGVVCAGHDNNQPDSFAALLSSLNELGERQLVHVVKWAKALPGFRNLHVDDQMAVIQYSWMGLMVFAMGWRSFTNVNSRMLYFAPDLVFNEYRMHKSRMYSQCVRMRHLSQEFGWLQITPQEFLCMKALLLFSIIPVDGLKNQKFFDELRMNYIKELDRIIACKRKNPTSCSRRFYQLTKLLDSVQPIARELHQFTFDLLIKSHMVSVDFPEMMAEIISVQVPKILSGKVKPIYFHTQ
Method: Human AR cDNA cloned into pCMV vector, GRE-LUC, and CMV-renilla-LUC were used to transfect cells. HEK-293 cells (ATCC) were plated at 120,000 cells per well of a 24 well plate in DME+5% csFBS (Fisher Scientific, Waltham, Mass.). The cells were transfected using Lipofectamine (Life Technologies, Carlsbad, Calif.) with 0.25 μg GRE-LUC, 0.010 μg CMV-LUC (renilla luciferase) and 25 ng of the AR. […] Luciferase assay was performed 48 hrs after transfection. Firefly luciferase assay values were normalized to renilla luciferase values and were graphed using graphpad prism software (La Jolla, Calif.).

| Compound | cell proliferation, % of vehicle at 3 μM (LNCaP-abl cells) [%] | cell proliferation, % of vehicle at 10 μM (LNCaP-abl cells) [%] | IC50 (GR) [µM] | IC50 (Human AR) [µM] |
| --- | --- | --- | --- | --- |
| Cc1ncsc1C(=O)NCc1ccc(-n2ccc(-c3ccc(C#N)c(C(F)(F)F)c3)n2)cc1F [Compound 15] | 66 | 3 | > 10 | 0.28 |
| N#Cc1ccc(-c2ccn(-c3ccc(CNC(=O)c4ccccn4)c(F)c3)n2)cc1C(F)(F)F [Compound 16] | 89 | 98 | > 10 | > 10 |

Reference: patent US11034669B2, “Pyrrole and pyrazole compounds and methods of use thereof” (Nuvation Bio Inc., priority 2018, dated 2021)
